Converted amounts (≈) assume the structure as drawn. “And” between values parts separate entries of the source, which are not always exact repeats. Equal entries are not always repeated. Where two headings read alike, the source gives them in different places.
B1: Candida albicans phosphatidylserine synthase Cho1 (enzyme, UniProt A0A1D8PF32 1-273, looked up)
chain: MSDSSATGFSKHQESAIVSDSEGDAIDSELHMSANPPLLRRSSSLFSLSSKDDLPKPDSKEYLKFIDDNRHFSMIRNLHMADFITLLNGFSGFYSIISCLRYTLTGQTHYVQRAHFFILLGLFFDFFDGRVARLRNKSSLMGQELDSLADLVSFGVSPATIAFAIGFRTTVDVLFLAFWVLCGLTRLARFNISVNNIPKDKHGKSQYFEGLPIPTNLFWVGFMALLVYKDWIHDNLPFGIVFQDTSFEFHLVTIGFVLQGCAEISKSLKIPKP
notes: Cho1, phosphatidylserine synthase (EC 2.7.8.8) of Candida albicans, CHO1 gene expressed from the TEF1 promoter; A TEV site (ENLYFQG) lies between Cho1 and the HAx3-HISx8 tag; The forward cloning primer begins at the ATG of CHO1; also called PS synthase; CDP-diacylglycerol-serine O-phosphatidyltransferase; not shown: HAx3, C-terminal, cleaved; His8, C-terminal, cleaved

Legend:
[1] = target: purified C. albicans Cho1 (phosphatidylserine synthase) (Candida albicans, UniProt A0A1D8PF32); experiment: malachite-green-based nucleotidase-coupled assay, dose-response; assay type: biochemical; settings: top 200 µM, 3 h at 30°C, three replicates
Procedure: A malachite-green-based nucleotidase-coupled assay was used to measure the PS synthesis activity of Cho1 (Fig. 1B). Cho1 catalyzes the production of PS and cytidylmonophosphate (CMP) from CDP-DAG and serine, where CMP can then be recognized and cleaved by the nucleotidase CD73 to release inorganic phosphate, which is subsequently detected by malachite green. To test whether this malachite-green-based assay can reflect Cho1 activity, a time-course test was performed with a fixed amount of purified Cho1 in the presence of substrates (Fig. 1C).
The bioactives library was purchased from Selleck in 2014, and the remaining libraries (anti-infectives and mechanism of action libraries) were assembled from compounds available at the Chemical Biology and Therapeutics Department at St. Jude Children’s Research Hospital. The anti-infectives library contains a curated list of antimicrobials and antiviral agents ([95]). The bioactive library has a compilation of compounds acquired from commercial sources and external academic collaborators. The mechanism of action set is a dynamic set of well-annotated compounds with comprehensive coverage of human targets and mechanisms of action ([96]). All compounds were dissolved in DMSO and 100 nL was transferred to a 384-well clear bottom plate (ThermoFisher Scientific, cat# 265203) using a Beckman Echo 650 acoustic liquid handler. Equal volumes of either the selective CD73 nucleotidase inhibitor AB680 at a final concentration of 1 µM (MedChemExpress, cat# HY-125286) or DMSO were used as positive and negative controls, respectively. A total of 30–35 ng of purified Cho1 protein was used in each reaction in 50 mM Tris-HCl (pH 8.0) for primary screening, combined with 100 µM CDP-DAG (Avanti, cat# 870510), 5 mM serine, 0.4 ng CD73 nucleotidase (R&D systems, cat# EA002), 1 mM MnCl2, 0.1% APX-100, and 0.1% digitonin, in a total volume of 10 µL. Counter screen reactions were set up by replacing only the purified Cho1 with 150 µM CMP, with all other components remaining constant. The 10 µL primary and counter screening reactions were delivered to each well of 384-well assay plates containing pre-aliquoted compounds from the library using a Multidrop Combi (ThermoFisher Scientific). […] After media transfer, assay plates were incubated for 3 h at 30°C. Plates were then removed and 32 µL of malachite green mixture [6 µL malachite A (2%, wt/vol, ammonium molybdate and 20%, vol/vol, sulfuric acid in H2O) +20 µL H2O + 6 µL malachite B (0.1%, wt/vol, malachite green oxalate and 0.5%, wt/vol, polyvinyl alcohol in H2O)] were added to each well via a MultiDrop Combi and incubated for an additional 10 min at room temperature. After incubation, plates were briefly centrifuged at 500 × g and absorbance at 620 nm was then measured using a Cytation7 plate reader (Biotek, Winooski, VT). Raw absorbance values of the compounds were normalized to DMSO (0% inhibition) and AB680 (100% inhibition) from both primary and counter screens, and % Δinhibition was calculated by […]. Z-factors for each plate were calculated using the in-house program RISE (Robust Investigation of Screening Experiments). All non-PAINs compounds that had >80% Δinhibition progressed to dose-response testing (82 total compounds). Dose-response experiments were performed in triplicate as described above using a 10-point, threefold serial dilution with the top concentration for each compound tested being 200 µM (range: 0.010161–200 μM). The absorbance at 620 nm was then measured using a PHERAstar FS multilabel reader (BMG, Cary, NC). Raw values were once again normalized to DMSO (0% inhibition) and AB680 (100% inhibition) and Z-factors for each plate were calculated using RISE. […]

[2] = tested on: wild-type C. albicans strain SC5314; experiment: CLSI MIC broth microdilution; assay type: cell-based, Candida albicans; settings: for MIC: Candida albicans; for effect on cell growth in all three media: even at 250 µM
Procedure: We then tested the effects of the six compounds on live cells by determining the minimal inhibitory concentrations (MICs) of these compounds. Following the standard Clinical & Lab Standards Institute (CLSI) MIC broth microdilution methods, wild-type C. albicans strain SC5314 was grown with avasimibe, CBR-5884, tideglusib, ebselen, ML-345, and LOC14 in RPMI MOPS medium (pH 7.0) or alternatively in minimal medium or minimal medium with HEPES (pH 7.0) at 37°C for 48 h, along with a cho1ΔΔ strain as a control (Fig. 3A through C). The concentration of the compounds was varied from 0.5 to 250 µM. […] Ebselen, LOC14, and CBR-5884, on the contrary, stopped cell growth at different concentrations in all three media, with MICs ranging between 7.8 and 31.3 μM (Fig. 3A through D). […] Specific MIC values are summarized in Fig. 3D for all the compounds.
Minimum inhibitory concentration (MIC) was determined following Clinical & Lab Standards Institute (CLSI) MIC broth microdilution protocol (Licensed to Todd Reynolds, license # Ord-1138682) ([98], [99]). Briefly, stock solutions of different compounds (purchased from MedChemExpress) were prepared at a concentration of 10 mM in DMSO and subsequently diluted as required in the same solvent. Wild-type C. albicans strain SC5314, as well as four additional wild-type strains—GDH2346, 3153A, TFPY412, and TFPY2307, were cultured overnight in YPD medium at 30°C, washed with water three times, and then diluted to a concentration of 2 × 10^3 cells/mL (OD600 = 0.00008) in one of the three media [minimal medium, minimal medium buffered with 50 mM HEPES (pH 7.0) and RPMI MOPS (pH 7.0)]. The cho1ΔΔ strain was also included as a control. A volume of 100 µL from each cell suspension was dispensed into the wells of a flat-bottom 96-well plate. An additional 100 µL of corresponding medium, containing twice the final desired concentration of each drug, was added to each well, leading to a final initial inoculum of 1 × 10^3 cells/mL (OD600 = 0.00004). The final DMSO concentration was maintained at 2.5% across all treatments. Following preparation, the plates were incubated at 37°C for 48 h and photos were taken with a Bio-Rad Gel Doc XR + Imaging System.

[3] = precipitation in MIC media; assay type: physicochemical
[4] = target: the molecule itself; experiment: native gel or EMSA; blue native PAGE of purified tag-free Cho1 in digitonin, stained with Coomassie Blue R-250; MW estimated with the band analysis tool of Quantity One
[5] = 10-point dose-response, read-out: Best-fit IC50, inhibition of Cho1
[6] = SC5314, RPMI MOPS pH 7.0, 37°C, 48 h, read-out: Minimal Inhibitory Concentration (MIC): RPMI, MOPS 7.0
[7] = SC5314, minimal medium with 50 mM HEPES pH 7.0, 37°C, 48 h, read-out: Minimal Inhibitory Concentration (MIC): MM, HEPES 7.0
[8] = SC5314, minimal medium, 37°C, 48 h, read-out: Minimal Inhibitory Concentration (MIC): MM

Molecule | IC50 [1, 5] | MIC [2, 6] [µM] | MIC [2, 7] [µM] | MIC [2, 8] [µM] | effect on cell growth in all three media [2] | also measured
CC(C)c1cc(C(C)C)c(CC(=O)NS(=O)(=O)Oc2c(C(C)C)cccc2C(C)C)c(C(C)C)c1 [Avasimibe] | ~23.4 µM | > 500 | > 500 | > 500 | did not affect cell growth | solubility in MIC media [3]: precipitated at high concentrations
O=c1c2cc(F)ccc2sn1-c1cc(S(=O)(=O)N2CCOCC2)ccc1N1CCOCC1 [ML-345] | ≤ 20 µM and ~15.5 µM | – | – | – | – | MIC ([2]; SC5314, 48 h, pH 7, read-out: Minimal Inhibitory Concentration (MIC): MM, HEPES 7.0): > 500 µM; MIC ([2]; SC5314, 48 h, pH 7, read-out: Minimal Inhibitory Concentration (MIC): RPMI, MOPS 7.0): 31.3 µM (≈ 15 µg/mL); MIC ([2]; SC5314, 48 h, read-out: Minimal Inhibitory Concentration (MIC): MM): > 500 µM; effect on cells grown in the minimal media ([2]; minimal media): had no effect
c1ccc(Nc2nc3c(s2)CCCc2[nH]ncc2-3)nc1 [TC-N 22A] | ~65.3 µM | – | – | – | – | –
O=c1sn(-c2cccc3ccccc23)c(=O)n1Cc1ccccc1 [Tideglusib] | – | > 500 | > 500 | > 500 | did not affect cell growth | IC50 ([1]; Best-fit IC50, inhibition of Cho1, 10-point dose-response): ≤ 20 µM and ~8.53 µM; solubility in MIC media ([3]; concentrations 0.5 to 250 µM): precipitated at high concentrations
B1 | – | – | – | – | – | stoichiometry N [4]: 6

— PMC11077991, “The small molecule CBR-5884 inhibits the Candida albicans phosphatidylserine synthase” (mBio, 2024)
